Measured values taken from patent US12263177B2, “Biologically active ganoderma lucidum compounds and synthesis of anticancer derivatives; ergosterol peroxide probes for cellular localization” (priority 2019, dated 2025).
Where two headings read alike, the source gives them in different places.

Tests used:
SUM-149 = assay: Cytotoxicity of EP probes via CTG assay; assay type: cell-based, human
[1] = system: MDA-MB-231, SUM-149, T47D; assay: Cytotoxicity of EP analogues via CTG assay, comparison across cell lines; settings: 72 hr
Description: To better understand the structure-activity-relationship of EP, its core was modified at the C3 position of the steroid backbone. […] Both normal cell lines HMEC and BJ cells were also evaluated to determine therapeutic index.
(§1) Either 1×10^3-4.8×10^3 or 4×10^2-1.2×10^3 cells were seeded to each well of 96- or 384-well white polystyrene flat-bottomed plates (3610 or 8804BC, Corning) in 100 μL or 30 μL media per well, respectively. The concentrations used were experimentally determined to ensure logarithmic growth during the duration of the experiment and prevent adverse effects on cell growth by DMSO exposure. The plates were incubated at 37° C. in 5% CO2 for 24 h before treatment. Stock solutions of test compounds (10 mM in DMSO) in nine 3-fold serial dilutions were dispensed via pintool (Biomek). The final concentration of DMSO was 0.3% (v/v) in each well. The plates were incubated for 72 h at 37° C. in 5% CO2 and then quenched with CellTiter-Glo® reagent (50 μL/well in 96-well plate, 30 μL/well in 384-well plate) at RT. The positive controls included staurosporine (10 μM), gambogic acid (10 μM), and a toxic quinoline generated in-house. Plates were then incubated at RT for 20 min and centrifuged at 1000 rpm for 1 min. The cytotoxicity assay was performed by using the CellTiterGlo Luminescent Cell Viability Assay kit (G7570, Promega, Madison, WI) according to the manufacturer's instructions. Luminescence was recorded in an Envision plate reader (Perkin Elmer).

HMEC = assay: Cytotoxicity of EP probes via CTG assay, normal cells; assay type: cell-based; settings: 72 hr
MDA-MB-231 = assay: Cytotoxicity of EP probes via CTG assay; assay type: cell-based, human; settings: read-out: MDA-MB231 EC50
T47D = assay: Cytotoxicity of EP probes via CTG assay; assay type: cell-based; settings: 72 hr
Solubility observations = assay type: physicochemical; settings: DMSO
Description: One of the liabilities with EP is sharing its core with cholesterol, an amphipathic molecule with part-water soluble, part-water insoluble character. Thus, while able to readily cross the cell membrane, the ability to deliver the pure compound faces challenges. EP's solubility properties are poor in DMSO or water unless warmed up to 30° C. However, in this report, EP's derivative, EP sulfonamide, was soluble at 10 mM in DMSO. Thus, the generation of a selective anti-cancer compound with greater potency than EP, and ample therapeutic window when compared to BJ normal cells, was accomplished.

BJ cells = assay: Cell viability assay in normal fibroblasts; settings: at the concentrations tested
Description: The compounds' activity was also evaluated in human and murine leukemia (KOPN8, BCR-ABL, UoCB-1, SUP-B15, NALM06) cell lines. As a control, normal human skin fibroblasts (BJ) cells and non-cancerous mammary epithelial cells (MCF10A) were used.
Different concentrations of GLE-extracted bioactive chemical components were tested for 72-h treatment periods.
as §1, with “The cytotoxicity assay was performed by using the CellTiterGlo Luminescent Cell Viability Assay kit (G7570, Promega, Madison, WI) according to the manufacturer's instructions.” left out
For the CTG assay, 3 or 4 replicate assays were conducted for each experimental condition, and a minimum of 3 independent experiments were conducted for cellular assays. The mean luminescence of each experimental treatment group was normalized as a percentage of the mean intensity of untreated controls. EC50 values (μM) were calculated by Pipeline Pilot Software (Accelrys, Enterprise Platform, CA, USA). EC50 values (μM) from the viability assay were calculated from dose response curve-fitting via non-linear regression by using GraphPad Prism (Version 7.0 San Diego, CA). […]

SUM-149 cells [2] = assay: Cell viability assay (CellTiter-Glo or PI staining); assay type: cell-based, human
MDA-MB-231 cells [3] = assay: ApoTox-Glo Triplex assay (caspase 3/7); assay type: cell-based, human; settings: MDA-MB-231, 24 h
Description: (§2) Cells commonly fail to bypass the G1 phase of the cycle due to mutations or DNA damage, which can result in apoptosis. […] In addition, caspase 3/7 activity assays were performed as an alternate method of apoptosis detection.
(§3) Cells (9.5×10^4/well in 75 μL of fresh medium) were dispensed in 96-well black flat bottom (8807BC, Corning) plates. The cells were incubated for 12 h at 37° C. and then treated with compounds (25 μL) for 24 h. DMSO was used as a negative control, and staurosporine was used as the positive control. The experiment was stopped by adding the Viability/Cytotoxicity Reagent and briefly mixed by orbital shaking (300-500 rpm for ˜30 sec). Plates were incubated for 30 min at 37° C., and fluorescence was measured in an Envision plate reader at the following two wavelength sets: 400Ex/505Em (Viability) 485Ex/520Em (Cytotoxicity). Then, the Caspase-Glo® 3/7 Reagent was added; plates were mixed briefly by orbital shaking (300-500 rpm for ˜30 sec), followed by an additional 30 min incubation at RT. Then luminescence, which correlates with caspase 3/7 activation, was recorded with a plate reader to determine apoptosis induction.

SUM-149 cells [4] = assay: ApoTox-Glo Triplex assay (caspase 3/7); assay type: cell-based, human; settings: SUM-149, 24 h
Description: as §2, §3

[5] = system: MDA-MB-231 breast cancer cells; assay: De novo in-cell protein synthesis (click assay); assay type: cell-based, human; settings: 2 h treatment; EP 20 μM
Description: First, 2.5×10^4 cells/well were seeded in 8-well μ-slides (Ibidi®, #80826) and incubated at 37° C. for 12 h. The cells were treated with vehicle, compounds Ganoderic acid A or EP, or cycloheximide (positive control) for 2 h to determine protein synthesis as nascent proteins generated using Biovision's EZClick™ Global Protein Synthesis Assay Kit, (#K715-100, Milpitas, CA). The assay includes a robust chemical method based on an alkyne containing o-propargyl-puromycin (OP-puro) probe, which stops translation by forming covalent conjugates with nascent polypeptide chains. Truncated polypeptides are rapidly turned over by the proteasome and can be detected based on the subsequent click reaction with a fluorescent azide. The reaction was conducted according to the manufacturer's protocol. Cells were imaged at 20× with a Nikon C2 scanning confocal microscope, and the whole image montage was quantified by using Gen5 Software and Lionheart™ FX Automated Microscope (BioTek, Winooski, VT).

[6] = system: various breast cancer cell lines; assay: Cell viability assay, breast cancer cell line panel; assay type: cell-based
MDA-MB-231 cells [7] = assay: Reactive oxygen species (ROS) measurement, CellROX; assay type: cell-based, human; settings: NAC 500 μM
SUM-149 cells [8] = assay: Reactive oxygen species (ROS) measurement, CellROX; assay type: cell-based, human; settings: NAC 500 μM
[9] = Homo sapiens, MDA-MB-231, 72 hr

SMILES	EC50 (SUM-149; 72 hr, read-out: SUM149 EC50) [µM]	cytotoxicity compared with parental compound 3 (in words) [1]	EC50 (HMEC) [µM]	EC50 (MDA-MB-231; 72 hr) [µM]	EC50 (T47D) [µM]	also measured
CC(C)C(C)C=CC(C)C1CCC2C1(C)CCC1C23C=CC2(CC(=O)CCC12C)OO3 (stereo not shown) [3a]	5	improved activity	> 13	7	10	
CC(C)C(C)C=CC(C)C1CCC2C1(C)CCC1C23C=CC2(CC(OC(=O)CCl)CCC12C)OO3 (stereo not shown) [3c]	5	promising activity against SUM-149 with little or no activity observed at the tested concentrations in MDA-MB-231 and T47D	> 20	> 20	> 20	
CC(C)C(C)C=CC(C)C1CCC2C1(C)CCC1C23C=CC2(CC(OC(=O)CN=[N+]=[N-])CCC12C)OO3 (stereo not shown) [3d]	10	promising activity against SUM-149 with little or no activity observed at the tested concentrations in MDA-MB-231 and T47D	> 20	> 20	> 20	
C#CCOC1CCC2(C)C3CCC4(C)C(C(C)C=CC(C)C(C)C)CCC4C34C=CC2(C1)OO4 (stereo not shown) [3e]	10	better activity	> 20	16	> 20	
CCOP(=O)(COC1CCC2(C)C3CCC4(C)C(C(C)C=CC(C)C(C)C)CCC4C34C=CC2(C1)OO4)OCC (stereo not shown) [3f]	5	improved activity	> 20	9	> 20	
CC(C)C(C)C=CC(C)C1CCC2C1(C)CCC1C23C=CC2(CC(OCP(=O)(O)O)CCC12C)OO3 (stereo not shown) [3g]	5	poor activity	> 20	37	> 20	
CC(C)C(C)C=CC(C)C1CCC2C1(C)CCC1C23C=CC2(CC(OP(=O)([O-])OCC[N+](C)(C)C)CCC12C)OO3 (stereo not shown) [3h]	21	poor activity	> 20	25	17	
CC(C)C(C)C=CC(C)C1CCC2C1(C)CCC1C23C=CC2(CC(OC(=O)CCCC(=O)O)CCC12C)OO3 (stereo not shown) [3i]	5	poor activity	> 20	33	18	
C#CCCCC(=O)OC1CCC2(C)C3CCC4(C)C(C(C)C=CC(C)C(C)C)CCC4C34C=CC2(C1)OO4 (stereo not shown) [3j]	4	superior activity across cell lines	> 13	8	11	
CC(C)C(C)C=CC(C)C1CCC2C1(C)CCC1C23C=CC2(CC(OC(=O)Cn4cc(CNC(=O)c5ccc6c(c5)C(=O)OC65c6ccc(N(C)C)cc6Oc6cc(N(C)C)ccc65)nn4)CCC12C)OO3 (stereo not shown) [3l]	18		> 20	20	> 20	solubility properties (in words) (Solubility observations; water or PBS): poor solubility properties and precipitated readily in DMSO or PBS
CCCCCOC(=O)Nc1nc(=O)n([C@@H]2O[C@H](C)[C@@H](O)[C@H]2O)cc1F [Capecitabin, reference compound]	5		10	5		
COc1cccc2c1C(=O)c1c(O)c3c(c(O)c1C2=O)C[C@@](O)(C(=O)CO)C[C@@H]3O[C@H]1C[C@H](N)[C@H](O)[C@H](C)O1 [Doxorubicin, reference compound]						EC50 (SUM-149; Homo sapiens, SUM149, 72 hr): 1 µM; EC50 (HMEC; Homo sapiens, HMEC): > 10 µM; EC50 (MDA-MB-231; [9]): 1 µM
CC(C)C(C)C=CC(C)C1CCC2C1(C)CCC1C23C=CC2(CC(OC(=O)NS(=O)(=O)c4ccccc4)CCC12C)OO3 (stereo not shown) [EP sulfonamide, ergosterol peroxide sulfonamide]						cytotoxic effects in normal BJ cells (BJ cells): minimal; EC50 (SUM-149 cells [2]; FIG. 10A, SUM-149 breast cancer cells, read-out: EC50, cancer cell viability of derivative): 12 µM; solubility in DMSO (Solubility observations): ≥ 10 mM
C[C@H](CC(=O)C[C@@H](C)[C@H]1C[C@H](O)[C@@]2(C)C3=C(C(=O)C[C@]12C)[C@@]1(C)CCC(=O)C(C)(C)[C@@H]1C[C@@H]3O)C(=O)O [GA-01, ganoderic acid A]						cytotoxic effects in normal BJ cells (BJ cells): did not induce cytotoxic effects; caspase 3/7 activity (MDA-MB-231 cells [3]): increase caspase 3/7 activity; caspase 3/7 activity (SUM-149 cells [4]): increase caspase 3/7 activity; de novo protein synthesis inhibition [5]: do not inhibit de novo protein synthesis
CC(=O)O[C@H]1C(=O)[C@@]2(C)[C@H]([C@H](OC(=O)c3ccccc3)[C@]3(O)C[C@H](OC(=O)[C@H](O)[C@@H](NC(=O)c4ccccc4)c4ccccc4)C(C)=C1C3(C)C)[C@]1(OC(C)=O)CO[C@@H]1C[C@@H]2O [Taxol, reference compound]						EC50 (SUM-149; Homo sapiens, SUM149, 72 hr): 0.01 µM; EC50 (HMEC; Homo sapiens, HMEC): > 10 µM; EC50 (MDA-MB-231; [9]): 2 µM
CC(C)[C@@H](C)/C=C/[C@@H](C)[C@H]1CC[C@H]2C3=CC=C4C[C@@H](O)CC[C@]4(C)[C@H]3CC[C@]12C [ergosterol]						cytotoxic effects in normal BJ cells (BJ cells): did not induce cytotoxic effects; concentration at which SUM-149 cell viability is significantly reduced (SUM-149 cells [2]; 72 h): 64 µM; EC50 ([6]; 72-h treatment): > 50 µM; cancer cell viability significantly reduced starting at ([6]; breast cancer cellular models, 72-h): 64 µM
CC1=CC(=O)c2ccccc2C1=O [menadione, Menadione, reference compound]						reduction in ROS formation in the presence of NAC (MDA-MB-231 cells [7]): about 20%; reduction in ROS formation in the presence of NAC (SUM-149 cells [8]): about 20%
CCCCCCCCCCCCCCCC(=O)O [palmitic acid]						activity at the tested concentrations in the evaluated cell lines [6]: did not show activity
